Assay results from patent publication US20040254246A1, “Treating or preventing hot flashes using prodrugs of GABA analogs” (priority 2003, published 2004).

Experiments:
[1] = system: hot flashes in postmenopausal women; experiment: Open label clinical study of hot flash frequency and severity, immediate release capsules; format: in vivo, human; settings: immediate release 300 mg capsules, two capsules three times daily (1800 mg/day), oral, two weeks
Source text: Twenty postmenopausal women who have been experiencing hot flashes (an average of at least 6 per day, range 6-20 per day) over the past 12 months and who have not been treated with hormone therapy (i.e., no estrogen, progestin, tamoxifen or leuprolide therapy) over the past 2 months are recruited to an open label clinical study on the effect of administration of a gabapentin prodrug on the frequency and severity of hot flash symptoms. After a two week baseline screening assessment, the prodrug 1-{[(α-isobutanoyloxyethoxy)carbonyl]aminomethyl}-1-cyclohexane acetic acid (synthesized as described by Gallop et al., International Publication No. WO 02/100347), formulated as an immediate release dosage form in 300 mg capsules, is administered in two capsules three times daily (1800 mg/day, equal to ˜900 mg gabapentin equivalents/day) for two weeks. Each patient records the frequency and severity of hot flashes in a diary following the protocol of Guttuso et al., Obstet. Gynecol. 2003, 101, 337-345. Daily hot flash frequency is calculated by totaling the number of hot flashes per week and dividing by the number of days in the week for which data is recorded. The primary outcome measure is the percentage change in hot flash frequency from baseline to the end of treatment week two. […]

[2] = Drug release from sustained release oral osmotic dosage form in artificial gastric fluid; format: physicochemical; settings: osmotic sustained release dosage form of Section 5.2 (700 mg drug composition), one 10 mil passageway
Experimental: A sustained release oral osmotic delivery dosage form containing the gabapentin prodrug 1-{[(α-isobutanoyloxyethoxy)carbonyl]aminomethyl}-1-cyclohexane acetic acid is prepared following methods described in Ayer et al., U.S. Pat. No. 5,707,663. Accordingly, 660 grams of 1-{[α-isobutanoyloxyethoxy)carbonyl]aminomethyl}-1-cyclohexane acetic acid and 30 grams of pharmaceutical acceptable poly(ethylene oxide), 5,000,000 molecular weight, is added to the bowl of a fluid bed granulator. The microencapsulation process is computerized and atomized in cycles. The process is initiated by first fluidizing the dry drug and the polymer powder for 3 minutes and the blended granules are microencapsulated with aqueous hydroxypropylmethylcellulose solution. The polymer solution is prepared by dissolving 35 grams of hydroxypropylmethylcellulose comprising 11,200 molecular weight in 400 grams of water. […]
The osmotic displacement-push composition is then prepared as follows: first, 3.7 kg of sodium chloride and 150 grams of red ferric oxide are separately screened through an 8 mesh screen using a Quadro comil. […] The conditions monitored during the process are as follows: solution spray rate of 400 g/min (3 nozzles are used); inlet temperature 45° C.; outlet temperature 24° C. and process air flow of 1,500 ft^3/minute. […]

[3] = system: hot flashes in postmenopausal women; experiment: Open label clinical study of hot flash frequency and severity, osmotic sustained release capsules; format: in vivo, human; settings: osmotic sustained release capsules 700 mg, two capsules twice daily (2800 mg/day), oral, two weeks
Source text: Twenty postmenopausal women who have been experiencing hot flashes (an average of at least 6 per day, range 6-20 per day) over the past 12 months and who have not been treated with hormone therapy (i.e., no estrogen, progestin, tamoxifen or leuprolide therapy) over the past 2 months are recruited to an open label clinical study on the effect of administration of gabapentin prodrugs on the frequency and severity of hot flash symptoms. After a two week baseline screening assessment, the prodrug 1-{[(α-isobutanoyloxyethoxy)carbonyl]aminomethyl}-1-cyclohexane acetic acid, formulated as osmotic sustained release capsules containing 700 mg drug (preparation of the sustained release capsules is described in Section 5.2 above), is administered in two capsules twice daily (2800 mg/day, equal to ˜1400 mg gabapentin equivalents/day) for two weeks. Each patient records the frequency and severity of hot flashes in a diary following the protocol of Guttuso et al., Obstet. Gynecol 2003, 101, 337-345. Daily hot flash frequency is calculated by totaling the number of hot flashes per week and dividing by the number of days in the week for which data is recorded. The primary outcome measure is the percentage change in hot flash frequency from baseline to the end of treatment week two.

[4] = system: hot flashes in postmenopausal women; settings: 59 postmenopausal women, double-blind placebo controlled trial; cited from earlier work

SMILES	decrease in mean hot flash intensity from baseline [1]	release rate [2] [mg/h]	decrease in mean hot flash intensity from baseline [3]	reduction in hot flash frequency from baseline [4]
CC(OC(=O)NCC1(CC(=O)O)CCCCC1)OC(=O)C(C)C (stereo not drawn) [1-{[(α-isobutanoyloxyethoxy)carbonyl]aminomethyl}-1-cyclohexane acetic acid]	more than 35%	> 20	more than 35%	
NCC1(CC(=O)O)CCCCC1 [gabapentin, 1-Aminomethyl-1-cyclohexane acetic acid]				substantial reduction in hot flash frequency from baseline
